≈ marks a conversion by molar mass, not a printed value.
What was measured:
Type in all cases: cell-based
[1] = test system: TK173 cells; experiment: Collagen I Western blot in TGFβ1-treated TK173 fibroblasts; conditions: Homo sapiens, Fibroblast, 10 ng/ml TGFβ1 for 5 days, then compound 48 hours, Collagen I immunoblot
Method: (§1) Compound reconstitution. Prior to treatment, each compound was used from a stock solution of a concentration of 10 mg/ml in DMSO. Final concentration of DMSO in cell cultures was kept below 0.1%.
(§2) Cell culture and treatment. The human renal fibroblast cell line TK173 was derived from a normal human kidney (laboratory stock; (G. A. Müller et al., Exp. Nephrol. 1995, 3, 127). Cell line stabilization for research purposes was approved by the Ethics Committee of the Georg-August-University. TK173 cells were cultured in Dulbecco's modified Eagle's medium (DMEM, Gibco, USA) supplemented with 10% fetal bovine serum (FBS, Gibco, Germany) and 1% penicillin-streptomycin (PS, Gibco, USA) at 37° C. in a humidified atmosphere with 5% CO2. Cell line was routinely tested for mycoplasma contamination. To investigate the effect of compounds after profibrotic agent treatment, 3×10^4 TK173 cells were seeded in one well of a 6-well culture plate in normal medium. After 24 hours, the culture medium was removed, and the cells were incubated for a further 24 hours in FBS free culture medium (starvation medium). Then, 10 ng/ml TGFβ1 (R&D Systems, USA) was added to the starvation medium, and the culture medium was changed with fresh TGFβ1 in every alternate day. After 5 days of TGFβ1 treatment, cell culture medium was replaced by starvation medium with compounds at different concentration for following 48 hours of incubation.
Protein Extraction. Total proteins were extracted from the cultured cells by NP40 Cell Lysis Buffer (Invitrogen, USA) containing phosphatase (Sigma-Aldrich, USA) and protease inhibitor (Roche, Switzerland) followed by sonication and centrifugation at 12,000×g for 20 minutes at 4° C. to clear the lysates. The supernatant was collected and measured using Pierce BCA Protein Assay Kit (ThermoFisher Scientific) by PHOmo Microplate Reader (Autobio, China). The samples were stored at −80° C. prior to use.
Immunoblotting. Western blot analysis, 10 μg of extracted proteins were diluted in NuPAGE LDS Samples Buffer (Novex Life technologies, USA) containing 5% 2-Mercaptoethanol (Sigma-Aldrich, Germany), and following denatured for 5 minutes at 95° C. The proteins were resolved by 4-12% NuPAGE SDS-PAGE (Novex Life technologies, USA). Blots were often stripped with Thermo Scientific Restore PLUS Western Blot Stripping Buffer (Thermo Fisher Scientific, Germany) for reprobing. The following antibodies were used for immunoblotting: Collagen I (1:1000; ab233080, Abcam, USA), alpha smooth muscle Actin (1:1000; ab124964, Abcam, USA), GAPDH (1:8000; sc-32233, Santa Cruz, USA). Proteins were detected by LumiGLO chemiluminescent system (Cell Signaling Technology, USA) with appropriate secondary antibodies: anti-mouse HRP (1:2500; Dako, Denmark) and anti-rabbit HRP (1:2500; 7074, Cell Signaling Technology, USA) using ChemiDoc MP Imaging System (Bio-Rad, USA).

[2] = test system: TK173 cells; experiment: ELISA to detect secreted type I collagen (Pro-Collagen I alpha 1) in conditioned media of TGFβ1-treated TK173 fibroblasts; conditions: Homo sapiens, Fibroblast, 10 ng/ml TGFβ1 for 5 days, then compound 48 hours, Pro-Collagen I alpha 1 ELISA of conditioned media, read-out: IC50, concentration where the TGFβ-stimulated collagen secretion is attenuated by 50%
Method: as §1, §2
Conditioned media containing the secretome of TK173 fibroblast were harvested after 48 hours of compound treatments. Secretion of pro-Collagen 1 was assessed with Human Pro-Collagen I alpha 1 DuoSet ELISA (R&D Systems, USA). To prepare the ELISA plate, Human Pro-Collagen I α1 Capture Antibody was diluted in ELISA Plate-coating Buffer at 4 μg/ml working concentration. 100 μl of diluted Capture Antibody was added to the 96-well microplates and incubated overnight at room temperature. After three times washing with Wash Buffer, microplates were blocked by adding 300 μl of Reagent Diluent for 1 hour at room temperature. To proceed the ELISA, Human Pro-Collagen I α1 Standards were diluted in Reagent Diluent (range between 31.3 pg/ml-2000 pg/ml) and 100 μl of standards or conditioned mediums were add into designated wells. Microplates were incubated at room temperature for 2 hours. Human Pro-Collagen I α1 Detection Antibody was prepared in Reagent Diluent at 100 ng/ml working concentration and 100 μl of diluted Detection Antibody was applied for 2 hours at room temperature after extensive washing. Then, working solution of Streptavidin-HRP with Reagent Diluent was prepared by diluting 1:40 and added into each well. After 20 minutes at room temperature incubation, microplates were washed and applied with 100 μl of Substrate Solution for 20 minutes followed by Stop Solution after washing. Finally, signals were measured at 450 nm absorbance by PHOmo Microplate Reader (Autobio, China). The amount of pro-collagen 1 antibody fusion was quantified by extrapolating the signal into a linear range of a pro-collagen 1 standard curve. Screening compounds were typically tested in at concentrations between 5 and 200 μg/ml. The IC50 values observed by the dose response curves for each compound (n=4-6, two independent experiments) were obtained by nonlinear regression analysis using Prism 9 software (GraphPad, La Jolla, USA) and represent the concentration where the TGFβ-stimulated collagen secretion is attenuated by 50%.

[3] = test system: TK173 cells; experiment: Collagen I mRNA PCR assay (qPCR, normalized to GAPDH) in TGFβ1-treated TK173 fibroblasts; conditions: Homo sapiens, Fibroblast, 10 ng/ml TGFβ1 for 5 days, then compound 48 hours
Method: as §1, §2
RNA isolation. Total RNA was extracted by the TRIzol reagent (Life technologies, USA) and purified by PureLink RNA Mini Kit (Ambion, USA) according to instructions available from the manufacturer with minor modifications. The samples were stored at −80° C. prior to use. RNA concentrations were measured by NanoDrop Spectrophotometer (ThermoFisher Scientific, USA), and were equilibrated to 100 ng for complementary DNA (cDNA) synthesis.
Quantitative real-time PCR analysis (qPCR). For SYBR Green-based qPCR analysis, cDNA preparation was performed by using DNAse I (Sigma-Aldrich, USA) digestion to remove residual genomic DNA and SuperScript II Reverse Transcriptase kit (Invitrogen, USA) to synthesize cDNA following the manufacturer's detailed instructions. All qPCR reactions were performed using the StepOne Plus Real-Time System (Applied Biosystems, USA) and amplifications were done using the SYBR Green PCR Master Mix (Applied Biosystems, USA). The thermal cycling conditions were initiated to 95° C. for 20 seconds, 40 amplification cycles at 95° C. for 3 seconds and 60° C. for 30 seconds, with one cycle of dissociation at 95° C. for 15 seconds, 60° C. for 60 seconds, and 95° C. for 15 seconds. Three replicates per sample were run in duplicate. The experimental cycle threshold (Ct) values were normalized to those obtained for GAPDH, and the relative gene expression level was determined using the 2_ddCT methods.

Compound | IC50 [1] | IC50 [2] | IC50 [3]
CNc1nn2nnnc2c2ncccc12 (single isomer, unassigned) [Compound 27, N-methylpyrido[2,3-d]tetrazolo[1,5-b]pyridazin-6-amine] | < 30 µg/mL |  | 
Cc1nn2nnnc2c2ccccc12 [Compound 2, 6-Methyl-tetrazolo[5,1-a]phthalazine] |  | 58 µg/mL (≈ 313 µM) | 
Cc1nn2c(C)nnc2c2ccccc12 [Compound 5, 3,6-Dimethyl-1,2,4-triazolo[3,4-a]phthalazine] |  | 39 µg/mL (≈ 197 µM) | < 20 µg/mL
Cc1nnc2c3ccccc3c(C#N)nn12 [Compound 6, 3-Methyl-1,2,4-triazolo[3,4-a]phthalazine-6-carbonitrile] | < 5 µg/mL | 61 µg/mL (≈ 292 µM) | 
Cc1nnc2c3ccccc3c(NCCO)nn12 [Compound 7, 2-[(3-methyl-1,2,4-triazolo[3,4-a]phthalazin-6-yl)amino]-ethanol] |  | 32 µg/mL (≈ 132 µM) | 
COc1cc2cnn3c(C)nnc3c2cc1OC [Compound 9, 8,9-Dimethoxy-3-methyl-1,2,4-triazolo[3,4-a]phthalazine] | < 1 µg/mL | 10 µg/mL (≈ 40.9 µM) | 
FC(F)(F)c1nnc2c3ccccc3cnn12 [Compound 10, 3-Trifluoromethyl-1,2,4-Triazolo[3,4-a]phthalazine] |  | 93 µg/mL (≈ 390 µM) | 
[2H]C([2H])([2H])c1nnc2c3ccccc3cnn12 [Compound 12, 3-D3-Methyl-1,2,4-triazolo[3,4-a]phthalazine] | < 5 µg/mL |  | < 50 µg/mL
OCc1nnc2c3ccccc3cnn12 [Compound 13, 1,2,4-Triazolo[3,4-a]phthalazin-3-yl-methanol] |  | 87 µg/mL (≈ 435 µM) | 
CCc1nnc2c3ccccc3cnn12 [Compound 14, 3-Ethyl-1,2,4-triazolo[3,4-a]phthalazine] | < 30 µg/mL |  | 
c1ccc2c(c1)cnn1cnnc21 [Compound 15, 1,2,4-Triazolo[3,4-a]phthalazine] | < 40 µg/mL | 105 µg/mL (≈ 617 µM) | 
c1cc2c(cnn3nnnc23)s1 [Compound 35, Tetrazolo[1,5-b]thieno[3,2-d]pyridazine] | < 40 µg/mL | 30 µg/mL (≈ 169 µM) | 
Cc1nnc2c3cscc3c(Cl)nn12 [Compound 38, 6-chloro-3-methylthieno[3,4-d][1,2,4]triazolo[4,3-b]pyridazine] |  | < 80 µg/mL | 
Cc1nnc2c3cscc3cnn12 [Compound 39, 3-methylthieno[3,4-d][1,2,4]triazolo[4,3-b]pyridazine] |  | < 80 µg/mL | 
c1nn2nnnc2c2cscc12 [Compound 41, Tetrazolo[1,5-b]thieno[3,4-d]pyridazine] |  | < 60 µg/mL | 
Cc1nnc2c3c(Cl)cccc3cnn12 [Compound 45, 10-chloro-3-methyl-[1,2,4]triazolo[3,4-a]phthalazine] |  | 20 µg/mL (≈ 91.5 µM) | 
Clc1cccc2cnn3nnnc3c12 [Compound 47a, 10-chlorotetrazolo[5,1-a]phthalazine] |  | < 5 µg/mL | 

Compound | IC50 [1] | IC50 [2] | IC50 [3]
Cc1nnc2c3cc(Cl)ccc3cnn12 [Compound 49a, 9-chloro-3-methyl-[1,2,4]triazolo[3,4-a]phthalazine] | < 50 µg/mL | < 30 µg/mL | 
Cc1nnc2c3ccc(Cl)cc3cnn12 [Compound 49b, 8-chloro-3-methyl-[1,2,4]triazolo[3,4-a]phthalazine] |  | 30 µg/mL (≈ 137 µM) | 
Clc1ccc2cnn3nnnc3c2c1 [Compound 51a, 9-chlorotetrazolo[5,1-a]phthalazine] | ≤ 40 µg/mL |  | 
Clc1ccc2c(cnn3nnnc23)c1 [Compound 51b, 8-chlorotetrazolo[5,1-a]phthalazine] | < 5 µg/mL |  | < 5 µg/mL
Cc1nnc2c3cc(Cl)c(Cl)cc3cnn12 [Compound 53, 8,9-Dichloro-3-methyl-[1,2,4]triazolo[3,4-a]phthalazine] | < 60 µg/mL | < 20 µg/mL | 
Clc1cc2cnn3nnnc3c2cc1Cl [Compound 55, 8,9-Dichlorotetrazolo[5,1-a]phthalazine] | < 20 µg/mL | < 10 µg/mL | 
Fc1cccc2cnn3nnnc3c12 [Compound 59a, 10-Fluorotetrazolo[5,1-a]phthalazine] |  | < 20 µg/mL | 
Fc1cccc2c1cnn1nnnc21 [Compound 59b, 7-fluorotetrazolo[5,1-a]phthalazine] |  | < 5 µg/mL | 
Cc1nnc2c3cc(F)ccc3cnn12 [Compound 61a, 9-Fluoro-3-methyl-[1,2,4]triazolo[3,4-a]phthalazine] | < 60 µg/mL | 530 µg/mL (≈ 2620 µM) | 
Cc1nnc2c3ccc(F)cc3cnn12 [Compound 61b, 8-fluoro-3-methyl-[1,2,4]triazolo[3,4-a]phthalazine] | < 80 µg/mL | < 30 µg/mL | 
Fc1ccc2cnn3nnnc3c2c1 [Compound 63a, 9-Fluorotetrazolo[5,1-a]phthalazine] | < 70 µg/mL | < 30 µg/mL | 
Fc1ccc2c(cnn3nnnc23)c1 [Compound 63b, 8-fluorotetrazolo[5,1-a]phthalazine] | < 30 µg/mL | < 50 µg/mL | 
Cc1nnc2c3cc(F)c(F)cc3cnn12 [Compound 65, 8,9-difluoro-3-methyl-[1,2,4]triazolo[3,4-a]phthalazine] | < 50 µg/mL | < 50 µg/mL | 
Fc1cc2cnn3nnnc3c2cc1F [Compound 67, 8,9-difluorotetrazolo[5,1-a]phthalazine] |  | < 3 µg/mL | 
COc1ccc2cnn3c(C)nnc3c2c1 [Compound 69a, 9-Methoxy-3-methyl-[1,2,4]triazolo[3,4-a]phthalazine] | < 30 µg/mL | < 30 µg/mL | 
COc1ccc2c(cnn3c(C)nnc23)c1 [Compound 69b, 8-methoxy-3-methyl-[1,2,4]triazolo[3,4-a]phthalazine] | < 80 µg/mL | < 30 µg/mL | 
CC(C)Oc1nn2nnnc2c2c(Cl)cccc12 [Compound 72, 10-Chloro-6-isopropoxytetrazolo[5,1-a]phthalazine] | < 5 µg/mL | < 5 µg/mL | 

Source: patent publication US20250215004A1, “AZOLO COMPOUNDS FOR TREATMENT OF FIBROTIC DISEASES” (GEORG-AUGUST-UNIVERSITÄT GÖTTINGEN STIFTUNG ÖFFENTLICHEN …, priority 2022, published 2025)
